Test results reported in patent US11104682B2, “Salts of TAM inhibitors” (Incyte Corporation, priority 2017, dated 2021).
Structures can show the parent of a compound that is named as a salt.

How the values were obtained:
[1] = target: c-Mer (Homo sapiens (Human), UniProt Q12866); test: TAM Enzymatic Assay (HTRF), c-Mer; format: biochemical; conditions: 0.0625 nM c-Mer, ATP
Description: (§1) The kinase assay buffer contained 50 mM HEPES, pH7.5, 10 mM MgCl2, 1 mM EGTA, 0.01% NP-40 and 2 mM DTT. 0.1 ul test compounds dissolved in DMSO were transferred from compound plates to white 384-well assay plates (Greiner […] plates). The final concentration of DMSO was 1.25%. Enzyme solutions of 5.1 nM phosphor-Axl, or 0.0625 nM c-Mer (Carna Biosciences, 08-108), or 0.366 nM Tyro3 (Life Technologies, PR7480A) were prepared in assay buffer. A 1 mM stock solution of peptide substrate Biotin-[…]-amide SEQ ID NO: 1 (Quality Controlled Biochemicals, MA) dissolved in DMSO was diluted to 1 uM in assay buffer containing 2000 uM ATP. 4 ul enzyme solution (or assay buffer for the enzyme blank) was added to the appropriate wells in each plate, and then 4 ul/well substrate solution was added to initiate the reaction. The plate was protected from light and incubated at room temperature for 60 min. […] The plate was incubated for 1 h at room temperature, and HTRF (homogenous time resolved fluorescence) signal was measured on a PHERAstar FS plate reader (BMG labtech). Percentage of inhibition was calculated for each concentration and IC50 value was generated from curve fitting with GraphPad Prism software.

[2] = target: Axl (Homo sapiens (Human), UniProt P30530); test: TAM Enzymatic Assay (HTRF), phosphor-Axl; format: biochemical; conditions: 5.1 nM phosphor-Axl, ATP
Description: Autophosphorylation of Axl was carried out by incubating the recombinant Axl protein (Life Technologies, PV4275) in buffer containing 50 mM Tris, pH7.5, 0.2 mg/ml Axl, 5 mM ATP, 20 mM MgCl2 and 2 mM DTT at room temperature for 1 hour.
as §1, with “reaction.” for “reaction. The plate was protected from light and incubated at room temperature for 60 min.”

[3] = target: Tyro3 (Homo sapiens (Human), UniProt Q06418); test: TAM Enzymatic Assay (HTRF), Tyro3; format: biochemical; conditions: 0.366 nM Tyro3, ATP
Description: as §1

[4] = Solubility of Compound I maleate salt in solvents (saturated solution, HPLC); format: physicochemical; conditions: thermodynamic from solid; for solubility at 48 h: 25 °C, 25±1° C.; for solubility at 24 h: 50 °C, 50±1° C.
[5] = organic solvent or mixture, solvent 1,4-Dioxane
[6] = organic solvent or mixture, solvent 1-Propanol
[7] = organic solvent or mixture, solvent 2-Methoxyethanol
[8] = organic solvent or mixture, solvent Acetone
[9] = organic solvent or mixture, solvent Chloroform
[10] = organic solvent or mixture, solvent DMF
[11] = organic solvent or mixture, solvent DMSO
[12] = organic solvent or mixture, solvent Dichloromethane
[13] = organic solvent or mixture, solvent EtOAc
[14] = organic solvent or mixture, solvent EtOH
[15] = organic solvent or mixture, solvent Ethyl formate
[16] = organic solvent or mixture, solvent IPA
[17] = organic solvent or mixture, solvent IPAc
[18] = organic solvent or mixture, solvent MEK
[19] = organic solvent or mixture, solvent MIBK
[20] = organic solvent or mixture, solvent MTBE
[21] = organic solvent or mixture, solvent MeCN
[22] = organic solvent or mixture, solvent Methanol
[23] = organic solvent or mixture, solvent THF
[24] = organic solvent or mixture, solvent Toluene
[25] = organic solvent or mixture, solvent n-BuOH

Sequence of Tyro3 (Q06418 41-890): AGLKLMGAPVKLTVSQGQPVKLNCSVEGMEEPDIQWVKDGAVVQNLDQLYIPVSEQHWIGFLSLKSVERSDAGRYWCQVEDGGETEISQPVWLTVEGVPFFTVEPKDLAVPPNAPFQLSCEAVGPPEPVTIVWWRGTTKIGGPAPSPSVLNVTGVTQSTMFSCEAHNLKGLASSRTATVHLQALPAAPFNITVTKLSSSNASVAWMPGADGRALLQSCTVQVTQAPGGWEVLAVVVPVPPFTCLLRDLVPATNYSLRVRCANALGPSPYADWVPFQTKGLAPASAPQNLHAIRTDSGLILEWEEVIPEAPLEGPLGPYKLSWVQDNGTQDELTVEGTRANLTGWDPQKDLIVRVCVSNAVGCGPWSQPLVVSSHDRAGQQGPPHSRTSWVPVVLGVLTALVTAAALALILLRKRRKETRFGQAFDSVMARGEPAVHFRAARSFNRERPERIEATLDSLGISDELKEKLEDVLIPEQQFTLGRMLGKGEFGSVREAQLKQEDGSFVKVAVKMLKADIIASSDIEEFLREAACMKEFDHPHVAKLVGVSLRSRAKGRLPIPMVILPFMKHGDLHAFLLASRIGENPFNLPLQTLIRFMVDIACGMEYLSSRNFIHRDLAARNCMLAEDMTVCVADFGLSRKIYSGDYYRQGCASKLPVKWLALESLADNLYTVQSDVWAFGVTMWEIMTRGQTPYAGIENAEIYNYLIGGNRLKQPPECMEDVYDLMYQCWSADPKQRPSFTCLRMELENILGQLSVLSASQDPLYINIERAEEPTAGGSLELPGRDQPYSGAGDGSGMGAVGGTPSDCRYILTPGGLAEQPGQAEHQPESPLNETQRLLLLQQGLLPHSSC
Sequence of Axl (P30530 26-894): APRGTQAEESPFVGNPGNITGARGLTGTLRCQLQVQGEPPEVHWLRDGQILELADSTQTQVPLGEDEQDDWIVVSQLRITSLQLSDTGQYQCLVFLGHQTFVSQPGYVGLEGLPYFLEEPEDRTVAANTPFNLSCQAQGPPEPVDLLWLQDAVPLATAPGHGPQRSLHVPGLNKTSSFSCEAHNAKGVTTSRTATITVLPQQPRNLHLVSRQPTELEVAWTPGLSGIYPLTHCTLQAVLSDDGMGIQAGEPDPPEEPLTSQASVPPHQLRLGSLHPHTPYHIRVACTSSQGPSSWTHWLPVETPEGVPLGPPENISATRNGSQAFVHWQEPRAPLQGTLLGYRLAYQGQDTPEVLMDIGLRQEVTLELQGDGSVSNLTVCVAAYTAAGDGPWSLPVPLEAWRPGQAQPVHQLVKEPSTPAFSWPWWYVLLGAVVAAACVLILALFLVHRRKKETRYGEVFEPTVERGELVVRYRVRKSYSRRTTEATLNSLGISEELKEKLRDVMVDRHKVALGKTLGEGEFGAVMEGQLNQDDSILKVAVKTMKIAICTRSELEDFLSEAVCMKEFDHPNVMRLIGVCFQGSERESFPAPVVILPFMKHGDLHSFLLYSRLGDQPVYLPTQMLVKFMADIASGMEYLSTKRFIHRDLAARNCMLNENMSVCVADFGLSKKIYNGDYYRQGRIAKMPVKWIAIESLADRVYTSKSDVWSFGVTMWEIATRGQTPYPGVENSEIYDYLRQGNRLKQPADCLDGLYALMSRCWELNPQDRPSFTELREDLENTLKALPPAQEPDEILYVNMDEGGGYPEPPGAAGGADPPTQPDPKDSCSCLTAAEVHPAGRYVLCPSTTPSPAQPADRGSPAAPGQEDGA
Sequence of c-Mer (Q12866 21-999): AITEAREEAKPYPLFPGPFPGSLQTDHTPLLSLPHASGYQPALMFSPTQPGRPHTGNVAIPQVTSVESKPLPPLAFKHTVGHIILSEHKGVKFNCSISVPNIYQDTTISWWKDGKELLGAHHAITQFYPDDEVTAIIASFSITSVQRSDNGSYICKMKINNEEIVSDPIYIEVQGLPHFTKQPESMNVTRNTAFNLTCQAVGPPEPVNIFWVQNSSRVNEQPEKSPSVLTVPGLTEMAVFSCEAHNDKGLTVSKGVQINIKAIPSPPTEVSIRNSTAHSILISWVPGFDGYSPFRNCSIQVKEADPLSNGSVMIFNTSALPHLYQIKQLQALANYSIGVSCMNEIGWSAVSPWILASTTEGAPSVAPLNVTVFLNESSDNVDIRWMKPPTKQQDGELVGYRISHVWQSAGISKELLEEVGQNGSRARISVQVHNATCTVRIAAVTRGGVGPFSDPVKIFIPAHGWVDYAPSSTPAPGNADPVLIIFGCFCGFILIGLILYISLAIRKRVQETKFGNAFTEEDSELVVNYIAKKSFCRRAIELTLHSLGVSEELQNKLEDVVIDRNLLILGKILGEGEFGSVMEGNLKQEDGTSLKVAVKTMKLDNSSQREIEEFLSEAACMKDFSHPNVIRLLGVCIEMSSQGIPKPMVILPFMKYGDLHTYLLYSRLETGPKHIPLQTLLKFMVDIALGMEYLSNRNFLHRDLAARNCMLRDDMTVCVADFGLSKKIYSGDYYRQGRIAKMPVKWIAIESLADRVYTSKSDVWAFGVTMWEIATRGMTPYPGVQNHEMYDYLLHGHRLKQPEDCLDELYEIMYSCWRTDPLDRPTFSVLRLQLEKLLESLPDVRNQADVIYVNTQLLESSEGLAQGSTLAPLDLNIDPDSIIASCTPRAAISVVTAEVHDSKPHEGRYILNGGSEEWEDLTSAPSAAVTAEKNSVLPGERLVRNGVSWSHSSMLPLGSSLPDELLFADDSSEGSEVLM

CC(C)C(=O)N1CCC(c2cc(-c3ccc(NC(=O)c4cn(C(C)C)c(=O)n(-c5ccccc5)c4=O)cc3)c3c(N)ncnn23)CC1 [Compound II hemi-sulfuric acid salt, N-(4-(4-Amino-7-(1-isobutyrylpiperidin-4-yl)pyrrolo[1,2-f][1,2,4]triazin-5-yl)phenyl)-1-isopropyl-2,4-dioxo-3-phenyl-1,2,3,4-tetrahydropyrimidine-5-carboxamide hemisulfate]
IC50 [1]: ≤ 5 nM | IC50 [2]: ≤ 5 nM | IC50 [3]: 10 to 100 nM

CC(C)C(=O)N1CCC(c2cc(-c3ccc(NC(=O)c4cn(C(C)C)c(=O)n(-c5ccccn5)c4=O)cc3)c3c(N)ncnn23)CC1 [Compound I maleate salt, N-(4-(4-Amino-7-(1-isobutyrylpiperidin-4-yl)pyrrolo[1,2-f][1,2,4]triazin-5-yl)phenyl)-1-isopropyl-2,4-dioxo-3-(pyridin-2-yl)-1,2,3,4-tetrahydropyrimidine-5-carboxamide maleate]
solubility at 48 h [4, 5]: 2310 µg/mL | solubility at 48 h [4, 6]: 440 µg/mL | solubility at 48 h ([4]; organic solvent or mixture, solvent 2% DCM/98% MeOH (V/V)): 1460 µg/mL | solubility at 48 h [4, 7]: 5960 µg/mL | solubility at 48 h ([4]; organic solvent or mixture, solvent 10% DCM/90% MeOH (V/V)): 1880 µg/mL | solubility at 48 h [4, 8]: 1680 µg/mL | solubility at 48 h [4, 9]: 6120 µg/mL | solubility at 48 h ([4]; organic solvent or mixture, solvent DCM/MeOH(2/1)): > 50000 µg/mL | solubility at 48 h [4, 10]: > 50000 µg/mL | solubility at 48 h [4, 11]: > 50000 µg/mL | solubility at 48 h [4, 12]: 24400 µg/mL | solubility at 48 h [4, 13]: 180 µg/mL | solubility at 48 h [4, 14]: 650 µg/mL | solubility at 48 h [4, 15]: 680 µg/mL | solubility at 48 h [4, 16]: 160 µg/mL | solubility at 48 h [4, 17]: 270 µg/mL | solubility at 48 h [4, 18]: 280 µg/mL | solubility at 48 h [4, 19]: 430 µg/mL | solubility at 48 h [4, 20]: 80 µg/mL | solubility at 48 h [4, 21]: 280 µg/mL | solubility at 48 h [4, 22]: 1640 µg/mL | solubility at 48 h [4, 23]: 920 µg/mL | solubility at 48 h [4, 24]: 180 µg/mL | solubility at 48 h [4, 25]: 210 µg/mL | solubility at 48 h ([4]; solvent Water): 20 µg/mL | solubility at 24 h [4, 5]: 4620 µg/mL | solubility at 24 h [4, 6]: 1310 µg/mL | solubility at 24 h [4, 7]: 14800 µg/mL | solubility at 24 h [4, 8]: 3050 µg/mL | solubility at 24 h [4, 9]: 13700 µg/mL | solubility at 24 h [4, 10]: > 50000 µg/mL | solubility at 24 h [4, 11]: > 50000 µg/mL | solubility at 24 h [4, 12]: 33700 µg/mL | solubility at 24 h [4, 13]: 400 µg/mL | solubility at 24 h [4, 14]: 1930 µg/mL | solubility at 24 h [4, 15]: 990 µg/mL | solubility at 24 h [4, 16]: 680 µg/mL | solubility at 24 h [4, 17]: 330 µg/mL | solubility at 24 h [4, 18]: 2190 µg/mL | solubility at 24 h [4, 19]: 740 µg/mL | solubility at 24 h [4, 20]: 100 µg/mL | solubility at 24 h [4, 21]: 680 µg/mL | solubility at 24 h [4, 22]: 3090 µg/mL | solubility at 24 h [4, 23]: 1630 µg/mL | solubility at 24 h [4, 24]: 200 µg/mL | solubility at 24 h [4, 25]: 1100 µg/mL | solubility at 24 h ([4]; solvent Water): 40 µg/mL | IC50 [1]: ≤ 5 nM | IC50 [2]: ≤ 5 nM | IC50 [3]: 10 to 100 nM
